Values joined by “and” are separate entries in the source; they are usually repeats but may differ in a detail not shown here. Equal values may be shown once.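 96-well plates; 48 h exposure; 5 concentrations. Endpoints by linear interpolation between flanking doses. Not reached: highest tested concentration assigned. GI50 = concentration required for 50% inhibition of growth. Definition used: TGI = concentration required for complete inhibition of growth.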
How the values were obtained:
Assay in all cases: NCI anticancer screen, dose series, 48 h
[1] = system: RXF 393 renal
[2] = system: NCI-H460 lung
[3] = system: A498 renal
[4] = system: ACHN renal
[5] = system: DU-145 prostate
[6] = system: SF-268 CNS
[7] = system: MOLT-4 leukemia
[8] = system: MDA-MB-435
[9] = system: DLD-1 colon

| Structure (SMILES) | GI50 [1] | TGI [1] | GI50 [2] | TGI [2] [µM] | GI50 [3] | TGI [3] | GI50 [4] [µM] | TGI [4] [µM] | GI50 [5] | TGI [5] [µM] | GI50 [6] | TGI [6] [µM] | GI50 [7] | TGI [7] [µM] | GI50 [8] [µM] | TGI [8] [µM] | TGI [9] [µM] |
| --- | --- | --- | --- | --- | --- | --- | --- | --- | --- | --- | --- | --- | --- | --- | --- | --- | --- |
| O=C(Nc1ccc(Br)cc1F)c1cc(Br)ccc1O | 0.661 µM | 3.33 µM | 0.5 µM | 7.2 | 0.246 µM | 1.12 µM | 0.848 | 9.18 | 1.47 µM | 23.1 | 0.716 µM | 11.6 | 1.45 µM | 4.49 | 0.846 | 5.63 | – |
| COc1cc2c3c(c4c5ccccc5[nH]c4c2c(OC)c1OC)C(=O)N(CCN1CCCCC1)C3=O | 0.502 µM | 1.89 µM | 0.654 µM | 2.1 | 1.35 µM | 4.87 µM | 0.4 | 1.6 | 1.22 µM | 2.54 | 1.15 µM | 2.96 | 0.536 µM | 9.23 | 1.48 | 3.27 | – |
| Nc1nc2c(c3cnccc13)C(c1cccc(Cl)c1)Cc1cnccc1-2 (configuration not stated) | 0.268 µM | 0.765 µM | 0.385 µM | 11.6 | 0.275 µM | 0.852 µM | 0.761 | 11.9 | 0.309 µM | 4.65 | 0.741 µM | 16.5 | 0.494 µM | 17.3 | 0.21 | 1.46 | – |
| CCc1ccc(Nc2cc(C)nc3nc(C)nn23)cc1 | 19.3 µM | > 100 µM | 71.1 µM | > 100 | 0.533 µM | 78.7 µM | 34.8 | > 100 | 35.1 µM | > 100 | 69.1 µM | > 100 | 33.3 µM | > 100 | 53.8 | > 100 | – |
| NC[C@@](O)(c1ccc(Cl)cc1)c1ccc(-c2cn[nH]c2)cc1 | 0.298 µM and 0.328 µM | 2.51 µM and 2.05 µM | 3.08 µM and 2.83 µM | > 100 | 0.438 µM and 0.313 µM | > 23.5 µM and 7.45 µM | 1.64 | 4.93 | 3.27 µM and 2.49 µM | > 100 | 1.24 µM and 1.28 µM | > 100 | 2.14 µM and 1.98 µM | > 100 | 1.81 | 3.61 | – |
| CC/C=C\C/C=C\C[C@H]1C/C=C2/C(=O)C=C[C@H]2C/C=C\CCC(=O)O1 | 2.28 µM | 4.61 µM | 3.1 µM | 7.96 | 4.07 µM | 13.3 µM | 2.6 | 5.2 | 4.33 µM | > 14.3 | 3.31 µM | 10.4 | 3.48 µM | 10.5 | 3.03 | 8.91 | – |
| COc1ccc(/C=C/C(=O)c2ccc(Nc3ccnc4cc(Cl)ccc34)cc2)cc1 | > 100 µM | > 100 µM | > 100 µM | > 100 | > 52.3 µM | > 100 µM | > 100 | > 100 | > 100 µM | > 100 | > 100 µM | > 100 | 4.35 µM | > 48.4 | 65.6 | > 100 | – |
| C[C@@]1(N2C(=O)OC[C@@H]2c2ccccc2)C(=O)N([C@H](CC(=O)N2CCC(N3CCCCC3)CC2)C(=O)NCc2cccc(C(F)(F)F)c2)[C@@H]1/C=C/c1ccccc1 | 2.1 µM | 4.51 µM | 2 µM | 3.86 | 1.88 µM | 5.98 µM | 2.03 | 4.61 | 2.79 µM | 8.47 | 1.76 µM | 3.94 | 2.26 µM | 6.42 | 1.74 | 3.26 | – |
| O=C1c2cccnc2C(=O)c2c1c(C(=O)OCCN1CCOCC1)c1ccccn21 | < 0.0187 µM | 2.91 µM | < 0.01 µM | 1.06 | 0.0236 µM | 1.65 µM | < 0.01 | 11.5 | < 0.0175 µM | 1.31 | < 0.0136 µM | 16.2 | 0.0938 µM | 3.22 | 0.0387 | 0.65 | – |
| C[C@]12CC[C@H]3[C@@H](C[C@@H]4N=C(c5ccc(O)cc5)S[C@@]45C[C@H](O)CC[C@]35C)[C@@H]1CC[C@@H]2O | 0.377 µM | 1.31 µM | 4.94 µM | > 100 | 3.51 µM | 21.3 µM | 7.55 | > 100 | 9.54 µM | > 100 | 5.32 µM | > 100 | 1.93 µM | > 100 | 16.4 | > 100 | – |
| CSc1nc2c(c(=O)[nH]1)C(c1ccc(Cl)cc1)C1=C(N2)/C(=C/c2ccc(Cl)cc2)CNC1 (configuration not stated) | 1.65 µM | 3.42 µM | 2.75 µM | 7.61 | 2.68 µM | 11.3 µM | 1.81 | 3.86 | 3.36 µM | 11.6 | 2.76 µM | – | 2.45 µM | 11 | 1.79 | 3.69 | – |
| CC(C)[C@@H]1CC[C@@H]2[C@@H]1[C@H](OC(=O)/C=C/c1ccccc1)[C@]1(C(C)C)C[C@@H](OC(=O)CO)[C@@]2(C)O1 | 3.31 µM | 8.31 µM | 6.15 µM | 11.7 | 0.00806 µM | 0.0288 µM | 0.00824 | 4.25 | 7.02 µM | 13.4 | 4.02 µM | 9.03 | 6.94 µM | 14.9 | 5.65 | 10.6 | – |
| Cc1ccc(S(=O)(=O)n2cc(-c3nnnn3-c3ccc(Cl)cc3)c(=O)c3ccccc32)cc1 | 29.6 µM | > 100 µM | 81.9 µM | > 100 | 77.3 µM | > 100 µM | > 100 | > 100 | > 100 µM | > 100 | > 100 µM | > 100 | 21.2 µM | 57 | > 100 | > 100 | – |
| C=C(CN1CCN(c2cccc(F)c2)CC1)c1ccc(C(=O)Nc2ccccc2N)cc1 | 0.563 µM | 6.09 µM | 3.95 µM | > 100 | 2.12 µM | 9.08 µM | 4.59 | 90.7 | 1.8 µM | 7.16 | 2.3 µM | > 100 | 0.315 µM | 2.76 | 0.283 | 1.74 | – |
| CC(O[Si](C)(C)C)C1C=CC(C)n2c(=O)n(-c3ccccc3)c(=O)n21 (configuration not stated) | – | > 100 µM | – | – | – | – | – | – | – | – | – | – | – | > 100 | – | – | > 100 |
| COC(=O)c1ccc(C2SCC(=O)N2NC(=O)C(O)c2ccccc2)cc1 (configuration not stated) | > 100 µM | > 100 µM | > 100 µM | > 100 | > 100 µM | > 100 µM | > 100 | > 100 | > 100 µM | > 100 | > 100 µM | > 100 | > 100 µM | > 100 | > 100 | > 100 | – |
| COc1ccc(Nc2ncccc2C(=O)NCc2cn(Cc3cccc(Oc4ccccc4)c3)nn2)cc1 | 2.59 µM | 7.16 µM | 3.52 µM | > 100 | 2.35 µM | 8.71 µM | 4.79 | > 100 | 3.76 µM | > 100 | 4.59 µM | > 100 | 2.91 µM | > 100 | 1.71 | 4.34 | – |
| O=C(CN1CCN(c2ccc(Cl)cc2)CC1)N1CCN(c2nnc(-c3ccccc3)c(-c3ccccc3)n2)CC1 | 15 µM | > 100 µM | 4.97 µM | > 100 | > 100 µM | > 100 µM | 5.07 | > 100 | > 100 µM | > 100 | > 100 µM | > 100 | 2.41 µM | > 100 | 7.25 | > 100 | – |
| C[n+]1ccc(-c2c3nc(c(-c4ccc5c(ccc[n+]5C)c4)c4ccc([nH]4)c(-c4cc[n+](C)cc4)c4nc(c(-c5ccc6c(ccc[n+]6C)c5)c5ccc2[nH]5)C=C4)C=C3)cc1 | 13.9 µM | > 50 µM | 16.9 µM | > 50 | 27.2 µM | > 50 µM | 27.9 | > 50 | 30.7 µM | > 50 | > 50 µM | > 50 | > 50 µM | > 50 | 12.9 | 36.9 | – |
| O=C1OC2C(O)C(=O)OC2C1O (configuration not stated) | – | > 100 µM | – | > 100 | – | > 100 µM | – | > 100 | – | > 100 | – | > 100 | – | > 100 | – | > 100 | – |
| CC(=O)c1ccc(NCN2C(=O)c3ccccc3C2=O)cc1 | – | > 100 µM | – | > 100 | – | > 100 µM | – | > 100 | – | > 100 | – | > 100 | – | > 100 | – | > 100 | – |
| CCCN1CCN(c2ccc3nc(-c4ccc5nc(-c6ccc(OCC)c(OCC)c6)[nH]c5c4)[nH]c3c2)CC1 | 0.27 µM | 0.83 µM | 0.387 µM | 1.35 | 0.538 µM | 1.82 µM | 1 | 2.6 | 0.436 µM | 1.75 | 1.6 µM | 6.1 | 0.471 µM | 3.34 | 0.532 | 1.81 | – |

From PubChem BioAssay (NCI)
